What was measured:
Pseudomonas aeruginosa = assay: Antimicrobial effect against bacteria (MIC); format: cell-based; conditions: strain PAO1, ATCC 15692
Procedure: (§1) Wild type (WT) Pseudomonas aeruginosa, Klebsiella pneumoniae, Enterobacter aerogenes, Staphylococcus aureus were cultivated overnight in LB medium at 37° C., then transferred to 5 ml of fresh LB culture broth, cultivated again for another 3 hours. Bacteria were collected by centrifugation, washed with sodium acetate (12.5 mM) twice, redissolved with 12.5 mM sodium acetate until the concentration was 1.5×10^5 cells/ml. Mixed with sequential-diluted anti-bacterial peptides, seeded in different wells of a 96-well plate allowing to react for 1 hour. Then, 20 μl of liquid bacterial mixture was taken out to mix with 780 μl of PBS (Phosphate-buffered saline) to terminate the reaction. 50 μl was then taken out and inoculated on a solid medium, after being cultivated at 30° C. for 24 hours, formed colonies were observed.

Enterobacter aerogenes = assay: Antimicrobial effect against bacteria (MIC); format: cell-based; conditions: strain ATCC 13048
Procedure: as §1

Klebsiella pneumoniae = assay: Antimicrobial effect against bacteria (MIC); format: cell-based; conditions: strain CG43
Procedure: as §1

Staphylococcus aureus = assay: Antimicrobial effect against bacteria (MIC); format: cell-based; conditions: strain ATCC 33591
Procedure: as §1

[1] = test system: Wild type (WT) Candida albicans; assay: Salt and pH tolerance of candidacidal activity; format: cell-based
Procedure: Wild type (WT) Candida albicans was cultivated in a YPD medium at 30° C. overnight and then transferred to 5 ml of fresh YPD culture broth, cultivated subsequently for another 5 hours. After the fungi were collected by centrifugation, washed with 12.5 mM sodium acetate twice, redissolved with 12.5 mM NaOAc to yield a fungal concentration of 1.5×10^6 cells/ml. Fifty microliters of liquid fungal suspension was taken out to mix with 50 μl of sequentially diluted antimicrobial peptides and placed in different wells of a 96-well plate allowing to react for 1 hour at 37° C. (as shown in FIG. 4(A). Then, 50 μl of liquid fungal mixture was taken out and 450 μl PBS was added to terminate the reaction. Finally, 25 μl was taken out and inoculated on a solid YPD medium.

och1Δ mutant strain = assay: Susceptibility of och1Δ mutant, CFU; format: cell-based, Candida albicans; conditions: och1Δ versus SN250, 1 h
Procedure: The SN250 and och1Δ mutant strains were grown overnight in YPD broth at 30° C. The overnight culture was then subcultured into fresh YPD medium and grown for 5 h. Cells were treated with different concentration of peptides for 1 h. After treatment, samples were serially diluted in PBS and 15 μl of each diluent was spotted onto YPD agar plates. Colony-forming units were counted after 24 h incubation at 30° C. The data were represented as the mean values±SD of three independent experiments.

[2] = test system: Candida albicans strain SC5314 biofilms; assay: Biofilm cell viability, XTT reduction assay; format: cell-based; conditions: biofilm cells, 37° C., 1 hr
Procedure: Candida albicans strain SC5314 was cultivated in a YPD medium overnight and then transferred to a fresh YPD culture broth, diluted until the concentration was 3×10^5 cells/ml. 100 μl of liquid fungal suspension was placed in a 96-well plate for cultivation at 37° C. for 24 hours, formed biofilms were washed with sodium acetate (12.5 mM). Then, sequence-diluted antimicrobial peptides P-113, P-113Du and P-113Tri (0-200 μM) were added, reacted at 37° C. for 1 hour, washed with PBS twice. The cellular activity of the biofilms was determined by using XTT (2,3-bis(2-methoxy-4-nitro-5-sulfophenyl)-2H-tetrazolium-5-carboxanilide) reduction assays to analyze the cell survival rate. To perform this reaction, XTT (0.5 mg/ml) and Menadione (0.5 μM) were dissolved in PBS and then added into a 96-well plate formed by biofilms, reacted at 30° C. for 30 minutes, the optical density was measured at wavelength 490 nm (OD490). The cellular activity of the biofilms was represented as a percentage.

[3] = test system: Wild type (WT) Candida albicans; assay: Candidacidal activity against cell suspension, colony count; format: cell-based; conditions: 37° C., 1 hour
Procedure: Wild type (WT) Candida albicans was cultivated in a YPD medium at 30° C. overnight and then transferred to 5 ml of fresh YPD culture broth, subsequently cultivated for another 5 hours. After being collected by centrifugation, the fungi were washed with sodium acetate (12.5 mM) twice, redissolved with 12.5 mM sodium acetate to yield a fungal concentration of 1.5×10^5 cells/ml. 50 μl of liquid fungal suspension was taken out to be mixed with 50 μl of sequence-diluted antimicrobial peptide and placed in different wells of a 96-well plate, allowing to react (37° C.) for 1 hour (as shown in FIG. 4(A)). Then, 20 μl of fungal liquid mixture was added into 780 μl of PBS to terminate the reaction. Finally, 50 μl was taken out and inoculated on a solid YPD medium, cultivated at 30° C. for 24 hours, then the number of colonies were counted.

[4] = test system: SC5314 strain of Candida albicans; assay: Intracellular ROS assay (DHE, MitoSOX Red, flow cytometry); format: cell-based; conditions: 0.25 μM, 1 h, 37° C.
Procedure: The SC5314 strain of Candida albicans (wild type or WT) were grown overnight in YPD broth at 30° C. The overnight culture was then subcultured into fresh YPD medium and grown for 5 h. Cells were harvested by centrifugation, washed twice with 12.5 mM sodium acetate (NaOAc) and resuspended in 12.5 mM NaOAc to a concentration of 1*10^7 cells/ml. The cells were treated with various AMPs (0.25 μM) for 1 h at 37° C. After treatment, cells were washed twice with 12.5 mM NaOAc. Dihydroethidium (DHE) is a superoxide indicator, and MitoSOX Red (MitoSOX) was introduced for selective detection of superoxide in the mitochondria of live cells. The intracellular ROS was measured using DHE (20 μM) staining for 30 min and MitoSOX Red (5 μM) for 60 min in PBS. Fluorescent detection was performed by flow cytometry.

[5] = Circular dichroism secondary structure in 85% TFE, BeStSel analysis; format: physicochemical; conditions: CD analyzed by BeStSel
Procedure: The present invention utilized a Circular Dichroism Spectrometer (AVIV Company) to observe the secondary structure of the antimicrobial peptides. Circular dichoism spectra of P-113 and its derivatives were recorded over the wavelength range of 195-260 nm with readings every 1 nm by using a quartz cuvette having 1 mm optical path length. Ellipticities were represented as mean residue molar ellipticity (MRE). P-113, P-113Du and P-113Tri were dissolved in 85% trifluoroethanol (TFE) solution.

[6] = test system: SC5314 strain of Candida albicans; assay: Effect of cell wall disrupting agents on peptide activity, CFU; format: cell-based; conditions: Proteinase K 1 mg/ml, 30 min
Procedure: The SC5314 strain of Candida albicans (wild type or WT) were grown overnight in YPD broth at 30° C. The overnight culture was then subcultured into fresh YPD medium and grown for 5 h. Cells were treated with Proteinase K (1 mg/ml) for 30 min or Zymolyase (5 mg/ml) for 1 h at 30° C., followed by reacting with different concentrations of the peptides for 1 h, respectively. After that, samples were serially diluted in phosphate-buffered saline (PBS) and 15 μl of each diluent was spotted onto YPD agar plates. Colony-forming units were counted after incubation at 30° C. for 24 h. The data were represented as the mean values±SD of three independent experiments.

C. dubliniensis = format: cell-based
Procedure: (§2) The antimicrobial activities against clinical isolates and drug-resistant strains of P-113 and its derived peptides were examined. The present invention evaluated the effect of P-113 on 15 clinical isolates of fungi belonging to the genus Candida (see Table 1). Clinical isolates were cultivated overnight at 30° C. under shaking in a YPD cultural broth (1% yeast extract, 2% peptone and 2% glucose), cells were centrifuged and washed with YPD, then cultivated again in a YPD culture broth allowing to grow for 5 hours (initial optical density at 600 nm [OD600]˜0.5). Cells were washed with PBS and then collected by centrifugation, redissolved in a culture broth (modified RPMI 1640 medium, LYM), the cell concentration was adjusted to ˜0.1 [OD600]/ml and then treated with P-113. After the mixed solution was cultivated under shaking at 37° C. and 5% CO2 for 24 hours, absorbance measurement (OD value) was performed to determine the minimum inhibitory concentration (MIC).

C. parapsilosis = format: cell-based
Procedure: as §2

Row | Compound | Minimum Inhibitory Concentration (MIC) (Pseudomonas aeruginosa) [µg/mL] | Minimum Inhibitory Concentration (MIC) (Enterobacter aerogenes) [µg/mL] | Minimum Inhibitory Concentration (MIC) (Klebsiella pneumoniae) [µg/mL] | Minimum Inhibitory Concentration (MIC) (Staphylococcus aureus) [µg/mL] | candidacidal activity ([1]; 93.75 mM sodium acetate) | antifungal activity in the high salt environment ([1]; 62.5 and 93.75 mM) | candidacidal activity ([1]; pH 4.5, 6, and 8) | susceptibility of och1Δ mutant to peptide (och1Δ mutant strain) | concentration causing 50% reduction in the metabolic activity (50% RMA) [2] [µg/mL] | activity for killing fungus compared with P-113 [3] | ROS-inducing ability, rank among peptides [4] | intracellular ROS formation [4] | content of the α-helical secondary structure [5] [%] | candidacidal activity after proteinase K treatment of cells [6] | Minimum Inhibitory Concentration (C. dubliniensis) [µg/mL] | Minimum Inhibitory Concentration (C. parapsilosis) [µg/mL]
1 | C[C@H](N)C(=O)N[C@@H](CCCCN)C(=O)N[C@@H](CCCNC(=N)N)C(=O)N[C@@H](Cc1c[nH]cn1)C(=O)N[C@@H](Cc1c[nH]cn1)C(=O)NCC(=O)N[C@@H](Cc1ccc(O)cc1)C(=O)N[C@@H](CCCCN)C(=O)N[C@@H](CCCNC(=N)N)C(=O)N[C@@H](CCCCN)C(=O)N[C@@H](Cc1ccccc1)C(=O)N[C@@H](Cc1c[nH]cn1)C(=O)N[C@@H](C)C(=O)N[C@@H](CCCCN)C(=O)N[C@@H](CCCNC(=N)N)C(=O)N[C@@H](Cc1c[nH]cn1)C(=O)N[C@@H](Cc1c[nH]cn1)C(=O)NCC(=O)N[C@@H](Cc1ccc(O)cc1)C(=O)N[C@@H](CCCCN)C(=O)N[C@@H](CCCNC(=N)N)C(=O)N[C@@H](CCCCN)C(=O)N[C@@H](Cc1ccccc1)C(=O)N[C@@H](Cc1c[nH]cn1)C(=O)N[C@@H](C)C(=O)N[C@@H](CCCCN)C(=O)N[C@@H](CCCNC(=N)N)C(=O)N[C@@H](Cc1c[nH]cn1)C(=O)N[C@@H](Cc1c[nH]cn1)C(=O)NCC(=O)N[C@@H](Cc1ccc(O)cc1)C(=O)N[C@@H](CCCCN)C(=O)N[C@@H](CCCNC(=N)N)C(=O)N[C@@H](CCCCN)C(=O)N[C@@H](Cc1ccccc1)C(=O)N[C@@H](Cc1c[nH]cn1)C(N)=O [P-113Tri] | 3.125 | 12.5 | 6.25 | 25 | potent candidacidal activity | maintained strong antifungal activity | consistent candidacidal activity | still sensitive | 43.245 | stronger activity for killing fungus than P-113 | strongest ROS-inducing ability | induced intracellular ROS formation | 21.4 | failed to kill C. albicans | 3.10 | 0.78
2 | LL-37: the control peptide (LLGDFFRKSKEKIGKEFKRIVQRIKDFLRNLVPRTES; Antibacterial peptide LL-37; UniProt P49913 134-170, looked up) [reference compound] |  |  |  |  |  |  |  | resistant |  |  |  |  |  | can still kill C. albicans cells |  | 
3 | C[C@H](N)C(=O)N[C@@H](CCCCN)C(=O)N[C@@H](CCCNC(=N)N)C(=O)N[C@@H](Cc1c[nH]cn1)C(=O)N[C@@H](Cc1c[nH]cn1)C(=O)NCC(=O)N[C@@H](Cc1ccc(O)cc1)C(=O)N[C@@H](CCCCN)C(=O)N[C@@H](CCCNC(=N)N)C(=O)N[C@@H](CCCCN)C(=O)N[C@@H](Cc1ccccc1)C(=O)N[C@@H](Cc1c[nH]cn1)C(=O)N[C@@H](C)C(=O)N[C@@H](CCCCN)C(=O)N[C@@H](CCCNC(=N)N)C(=O)N[C@@H](Cc1c[nH]cn1)C(=O)N[C@@H](Cc1c[nH]cn1)C(=O)NCC(=O)N[C@@H](Cc1ccc(O)cc1)C(=O)N[C@@H](CCCCN)C(=O)N[C@@H](CCCNC(=N)N)C(=O)N[C@@H](CCCCN)C(=O)N[C@@H](Cc1ccccc1)C(=O)N[C@@H](Cc1c[nH]cn1)C(N)=O [P-113Du] | 3.125 | 25 | 12.5 | 25 | potent candidacidal activity |  | consistent candidacidal activity | resistant | 51.54 | stronger activity for killing fungus than P-113 |  | induced intracellular ROS formation | 10.6 | failed to kill C. albicans | 3.10 | 0.78
